Measured values taken from ChEMBL document CHEMBL4602708, “Discovery of CNS-Penetrant Apoptosis Signal-Regulating Kinase 1 (ASK1) Inhibitors” (ACS Med Chem Lett, 2020).

Legend:
P-gp (MDR1), human = assay: Apparent permeability from apical to basolateral side in MDCK-MDR1 cells transfected with human p-gp; assay type: ADME, cell-based, Canis lupus familiaris; conditions: dog
[1] = Volume of distribution at steady state in rat; assay type: ADME; conditions: in vivo, read-out: Vdss

Papp A→B (P-gp (MDR1), human) [nm/s]	Vd [1] [L/kg]	Compound
18	2.7	C[C@H]1CCCOc2nn(C)cc2C(=O)Nc2cccc(n2)-c2nncn21
50	2.3	COc1nn(-c2cnccn2)cc1C(=O)Nc1cccc(-c2nncn2C(C)C)n1
